Where “and” joins values, the source holds several entries; their conditions need not be identical. Identical values can stand only once. Entries after “also recorded” stand apart in the source; their conditions may differ. Like-named read-outs stand apart in the source and are kept apart here.
Assays:
Type in all cases: in vivo
[1] = test system: juvenile lemon and nurse sharks; assay: Tonic immobility, Micropipette Assay, summary over species; details: for Micropipette Y (termination of tonic immobility), trials of trials: oral dose; for screening result: lemon and nurse sharks
Experimental: (§1) One bioassay used to observe and measure flight response is the tonic immobility test. Tonic immobility is a state of paralysis that typically occurs when a shark is subject to inversion of its body along the longitudinal axis. This state is called “tonic,” and the shark can remain in this state for up to 15 minutes thereby allowing researchers to observe effects of chemical repellents. The “tonic” state of the shark is first established by releasing seawater in proximity to the “tonic” shark with the same delivery instrument and at the same distance as a “test” repellent compound will be released. Some controls are released with a high flow rate (30 mL/sec) in order to establish that sharks are not awakened by a jet of fluid over their noses. Once behavioral controls are established, a compound or composition that may have a repelling effect is delivered to the shark. If the compound or composition engenders a flight response, the shark will awaken from the tonic state and rapidly attempt to flee the delivered repellent. Using this tonic immobility bioassay researches can quantify the strength of a repellent effect.
A fourth method of delivery was called the “Micropipette Assay” method of delivery. In this method, a very small dose (fraction of a mL) of a test substance was delivered directly into a shark's mouth. […] A response, such as a cough or other notable action of the shark, was usually noted when effective gustatory repellents were delivered directly into a shark's mouth while in tonic immobility.
The Micropipette Assay method has not proven to be a particularly effective method of assaying for a flight response in elasmobranchs. The Micropipette Assay method is, nevertheless, an excellent method for specifying that a gustatory response has occurred. It is effective for specifying a gustatory response because the micropipette delivery method allows direct delivery of an entire bolus of test substance into the mouth of the shark being tested.
An oral dose of no more than 400 microliters was then delivered by micropipette into the mouth of a juvenile nurse shark. Tonic immobility was terminated. For each derivative of butyric acid and each naturally occurring acid listed in Table 9, a first micropipette assay was performed on a juvenile lemon shark with no more than 100 microliters of test acid in an oral dose. A second micropipette assay was then performed on a juvenile nurse shark with no more than 400 microliters of test acid in an oral dose. In each test, tonic immobility was terminated.
In a first set of studies on the effectiveness of carboxylic acids as elasmobranch repellents, each tested substance was subjected to the following protocol. […] An oral dose of no more than 400 microliters was then delivered by micropipette into the mouth of a juvenile nurse shark. Tonic immobility was terminated. […] The data evidences the gustatory repelling activity of carboxylic acids.

[2] = test system: sharks (lemon, nurse, tiger pooled); assay: Tonic immobility, Hd Syringe Assay, summary over species; details: for lowest volume of repellent that terminated tonic immobility: Hd Syringe, lemon and nurse sharks; for Hd-Syringe Y (termination of tonic immobility), trials of trials: species pooled
Experimental: as §1
In Hd-Syringe Assays, the 3-methylbutanal was delivered to the shark's mouth and nares using a 3 mL hypodermic syringe fitted with a 22 gauge needle. The needle was held within 3 inches of the shark's mouth and the test repellent was slowly released from the syringe with a very fine plume in the water column. Any response was denoted. If a response occurred during a measurable time after delivery of the test chemical, the time between delivery and response was noted. If a response occurred immediately or the response occurred before a measurable time could be established, no time to response was noted.

sharks (species pooled) = assay: Tonic immobility, total of delivery methods not including Micropipette assays; details: species and delivery methods pooled
Experimental: as §1
Table 1, which summarizes the data in Tables 14 and 15, evidences the gustatory repellent characteristics of methylbutanals. In 35 of 36 assays (combining columns “Y” and “R” under the column labeled “Total (Not including Micropipette Assays)” to arrive at a 97% effectiveness rate), including assays on lemon, nurse, tiger and blacktip sharks, the gustatory repellent activity of 3-methylbutanal was established. In 81% of assays, tonic immobility was fully terminated. […] In only a single assay did a shark not respond to treatment with 3-methylbutanal.

[3] = test system: sharks (lemon, nurse, blacknose, blacktip pooled); assay: Tonic immobility, Syringe Assay, summary over species
Experimental: as §1
A second delivery method called the “Syringe Assay” method delivered a dose of 60 mL or more of a test chemical repellent from at least one foot, and up to as many as five feet, from a shark. The distance of delivery was determined based on the strength of the water current in the direction of the shark. Time from delivery of the test substance until response was observed, measured and recorded. The “Syringe” method allows a researcher to observe how a diffusing and diluting cloud of test chemical repellent affects the shark's behavior when the shark encounters the delivered cloud of test substance. The “Syringe” method requires relatively large doses because of the diffusion of the cloud over time and distance. Time from delivery to response is related to the size of the bolus delivered from the syringe, distance of the shark from the syringe and water current.
In the Syringe assay about 60 mL or more of valeraldehyde was delivered from one to as many as five feet from the shark depending on the water current. […] Time from delivery to response was related to the size of the bolus delivered from the syringe, distance of the shark from the syringe and water current.

[4] = test system: sharks (lemon, nurse, blacktip, tiger, blacknose pooled); assay: Tonic immobility, Syringe 3/5/10 Assay, summary over species
Experimental: as §1
In the tonic immobility studies disclosed herein, several different methods were employed for delivery of repelling compounds. A first method for delivery of chemical repellent in tonic immobility studies employed a “Syringe 3/5/10 Assay” method. The “Syringe 3/5/10 Assay” method is so named because a test repellent is delivered to a shark from a distance of about “3” inches with a bolus of about “5” mL with a response to the test repellent considered positive if the shark reacts with a change in behavior within less than about “10” seconds from the time of delivery.
The “3/5/10 Syringe Assay” as employed herein delivered a dose of 5-6 mL of a test chemical repellent from a syringe fixed with a needle having a gauge of about 22 from a distance at least 3 inches in front of a shark. Because the test chemical repellent was delivered at a distance from the shark's nares and mouth, a cloud of test chemical repellent was dispersed over the shark within the water column. The dispersed test repellent was subject to water current direction, dispersion and dilution. As a result, a flight response within 10 seconds was considered a positive repellency response. […] Time from delivery to response is related to the size of the bolus delivered from the syringe, distance of the shark from the syringe and water current.
In Syringe 3/5/10 Assays, 5-6 mL of 3-methylbutanal was delivered at least 3 inches in front of the shark's mouth. A cloud of the repellent dispersed over the shark within the water column. […] As noted above, because the dispersion of the chemical repellent upon delivery is affected by volume of repellent, water current, and other factors, the time between delivery and response was not correlatable with the potency of the repellent.

[5] = juvenile lemon and nurse sharks

Row | Structure (SMILES) | Micropipette Y (termination of tonic immobility), trials of trials [1, 5] | screening result [1] | Total (Not including Micropipette assays / Effective Delivery Methods) Y, trials of trials (sharks (species pooled)) | Syringe Y (termination of tonic immobility), trials of trials [3] | also measured
1 | CCC(C)(C)C(=O)O [2,2-Dimethylbutyric Acid] | 2/2 | repellents | – | – | –
2 | CC(C)C(C)C(=O)O (stereo not shown) [2,3-Dimethylbutyric Acid] | 2/2 | repellents | – | – | –
3 | CCC(CC)C(=O)O [2-Ethylbutyric Acid] | 2/2 | repellents | – | – | –
4 | CCC(=O)C(=O)O [2-Ketobutyric Acid] | 2/2 | repellents | – | – | –
5 | CCC(C)C=O (stereo not shown) [2-methylbutanal] | – | – | 5/5 | – | lowest volume of repellent that terminated tonic immobility [2]: 200 µL; Hd-Syringe Y (termination of tonic immobility), trials of trials [2]: In each assay tonic immobility was terminated and five of five and 5/5
6 | CC=C(C)C=O [2-methylbutenal] | – | – | – | – | lowest volume of repellent that terminated tonic immobility [2]: 300 µL; Hd-Syringe Y (termination of tonic immobility), trials of trials [2]: All assays resulted in termination of tonic immobility and four of four and 4/4; Hd-Syringe Y (termination of tonic immobility), trials of trials ([2]; listed as 2-Methylbutenal): 4/4
7 | CC(N)CC(=O)O (stereo not shown) [3-Aminobutyric Acid] | 2/2 | repellents | – | – | –
8 | C=CCC(=O)O [3-Butenoic Acid (vinylacetic acid), 3-Butenoic Acid] | 2/2 | shark repelling compounds | – | – | –
9 | CC(C)=CC=O [3-methylbutenal] | – | – | – | – | lowest volume of repellent that terminated tonic immobility [2]: 350 µL; Hd-Syringe Y (termination of tonic immobility), trials of trials [2]: All assays resulted in termination of tonic immobility and four of four and 4/4; Hd-Syringe Y (termination of tonic immobility), trials of trials ([2]; listed as 3-Methylbutenal): 4/4
10 | CC(=O)CCCC(=O)O [4-Acetylbutyric Acid] | 2/2 | repellents | – | – | –
11 | COc1ccc(C=O)cc1 [Anisaldehyde, anisaldehyde] | – | – | – | 1/1 | –
12 | CCCCCC=O [Capronaldehyde, capronaldehyde] | – | – | 1/1 | 1/1 | Total Y, percent of trials (sharks (species pooled)): 100%
13 | O=C/C=C/c1ccccc1 [Cinnimaldehyde, trans-cinnimaldehyde] | – | – | 2/2 | 2/2 | Syringe Y (termination of tonic immobility), trials of trials ([3]; listed as cinnimaldehyde): two of two; Syringe Y (termination of tonic immobility), trials of trials ([3]; listed as trans-cinnimaldehyde): resulted in termination of tonic immobility
14 | O=C(O)CC(O)C(=O)O (stereo not shown) [Hydroxysuccinic Acid] | 2/2 | – | – | – | –
15 | CC(C)C=O [Isobutyraldehyde, isobutyraldehyde] | – | – | 4/4 | 4/4 | Syringe Y (termination of tonic immobility), trials of trials ([3]; listed as isobutyraldehyde): All resulted in termination of tonic immobility; Total Y, percent of trials (sharks (species pooled)): 100%
16 | CCC=O [Propionaldehyde, propionaldehyde] | – | – | 4/4 | 4/4 | Syringe Y (termination of tonic immobility), trials of trials ([3]; listed as propionaldehyde): All resulted in termination of tonic immobility; Total Y, percent of trials (sharks (species pooled)): 100%
17 | CC/C=C/C=O [Trans-pentenal, trans-pentenal] | – | – | 5/5 | – | Hd-Syringe Y (termination of tonic immobility), trials of trials [2]: 5/5; Hd-Syringe Y (termination of tonic immobility), trials of trials ([2]; listed as Pentenal): 5/5
18 | O=C(O)CC(CC(=O)O)C(=O)O [Tricarballylic Acid] | 2/2 | – | – | – | –
19 | CC(C)(C)C=O [Trimethylacetaldehyde, trimethylacetaldehyde] | – | – | 6/7 | 1/2 | Micropipette assays with a behavioral response within tonic immobility [1, 5]: change of behavior during tonic immobility; Syringe N (no response), trials of trials [3]: 1/2; Hd-Syringe Y (termination of tonic immobility), trials of trials [2]: 5/5; Total (Not including Micropipette assays / Effective Delivery Methods) N, trials of trials (sharks (species pooled)): 1/7; Total Y, percent of trials (sharks (species pooled)): 100%; Total (Not including Micropipette assays / Effective Delivery Methods) Y, trials of trials (sharks (species pooled); listed as trimethylacetaldehyde): resulted in termination of tonic immobility
20 | CCCCC=O [Valeraldehyde, valeraldehyde] | – | – | 6/6 | 1/1 | Micropipette assays with a gustatory response (termination or behavior change) [1, 5]: six of six; also recorded: all Micropipette assays showed a response; Hd-Syringe Y (termination of tonic immobility), trials of trials [2]: 5/5; Total Y, percent of trials (sharks (species pooled)): 100%; Total (Not including Micropipette assays / Effective Delivery Methods) Y, trials of trials (sharks (species pooled); listed as valeraldehyde): terminated tonic immobility; also recorded: six of six
21 | CC(O)C(=O)O (stereo not shown) [lactic acid] | – | – | – | – | Syringe 3/5/10 N (no response), trials of trials [4]: no behavioral change and 1/3; Syringe 3/5/10 Y (termination of tonic immobility), trials of trials [4]: two of three and 2/3
22 | O=C(O)/C=C/c1ccccc1 [trans-Cinnamic acid] | 2/2 | – | – | – | –

From patent US9456589B2, “Elasmobranch-repelling compounds and methods of use” (priority 2005, dated 2016)
